In patent US11241440B2, “Dihydrooxadiazine compounds for treating infections and cancer” (VALORALIA I MÁS D, SL, priority 2016, dated 2022):

Tested on: M. chelonae
Assay: Kirby-Bauer disk diffusion susceptibility test
Format: cell-based
Details: M. chelonae strain 870, isolation year 2011

Penicillin
Characteristics of strains: susceptibility or resistance: R
